Laboratory results: PMC9607081 (Membranes, 2022)
Substitutions are numbered along the chain they refer to. Where two headings read alike, the source gives them in different places.

Key:
Type in all cases: cell-based
[1] = biological target: T1, human GlyR α1 subunit P96A (Homo sapiens, UniProt P23415, P124A); assay: Two-electrode voltage clamp of Xenopus oocytes expressing P96A GlyR; conditions: for nH (Hill coefficient): Table 1, n = 5; for EC50: Table 1, −60 mV
T1 construct: expressed in transfected cells; host or cells: Xenopus laevis oocytes injected with receptor mRNA
T1 sequence (P23415 29-457 P124A): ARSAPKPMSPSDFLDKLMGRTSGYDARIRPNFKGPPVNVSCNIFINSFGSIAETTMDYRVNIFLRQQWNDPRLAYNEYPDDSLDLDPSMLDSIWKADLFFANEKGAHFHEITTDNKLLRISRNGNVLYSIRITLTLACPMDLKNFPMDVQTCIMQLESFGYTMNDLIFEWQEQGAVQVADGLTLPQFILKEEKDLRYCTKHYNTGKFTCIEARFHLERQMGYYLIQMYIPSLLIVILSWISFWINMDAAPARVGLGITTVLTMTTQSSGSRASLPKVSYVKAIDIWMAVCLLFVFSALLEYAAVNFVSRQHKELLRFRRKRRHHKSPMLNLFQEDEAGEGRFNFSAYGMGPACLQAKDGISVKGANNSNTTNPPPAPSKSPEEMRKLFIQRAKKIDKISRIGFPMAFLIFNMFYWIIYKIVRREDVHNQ
Procedure: (§1) Injection volumes were 50–100 nL per cell.
(§2) All experiments were performed at 22–25 °C. […] The holding potential was −60 mV unless otherwise specified.

[2] = biological target: T2, human GlyR α1 subunit P146A (Homo sapiens, UniProt P23415, P174A); assay: Two-electrode voltage clamp of Xenopus oocytes expressing P146A GlyR; conditions: for nH (Hill coefficient): Table 1, n = 5; for EC50: Table 1, −60 mV
T2 construct: expressed in transfected cells; host or cells: Xenopus laevis oocytes injected with receptor mRNA
T2 sequence (P23415 29-457 P174A): T1 sequence (P23415 29-457 P124A) with A96P, P146A
Procedure: as §1, §2

[3] = biological target: T3, human GlyR α1 subunit P146 (CysL) substituted with Pro (Homo sapiens, UniProt P23415); assay: TEVC, oocytes, nonsense suppression, P146 Pro recovery; conditions: for EC50: Table 3, nonsense suppression
T3 construct: expressed in transfected cells; host or cells: Xenopus laevis oocytes injected with receptor mRNA
T3 sequence (P23415 29-457): T1 sequence (P23415 29-457 P124A) with A96P
Procedure: Injection volumes were 50–100 nL per cell. […] The holding potential was −60 mV unless otherwise specified.

[4] = biological target: T4, human GlyR α1 subunit P146 (CysL) substituted with Pip (Homo sapiens, UniProt P23415, P174X); assay: TEVC, oocytes, nonsense suppression, P146 Pip; conditions: for EC50: n = 3
T4 sequence (P23415 29-457 P174X): T1 sequence (P23415 29-457 P124A) with A96P, P146X
Procedure: (§3) The cDNA for the human GlyR α1 subunit was in pGEMHE (ThermoFischer Scientific, Bishops Stortford, UK). Site-directed mutagenesis was performed using QuikChange (Agilent Technologies, Milton Keynes, UK) to generate the appropriate codon. For non-canonical amino acid mutants and conventional mutants generated by nonsense suppression, the site of interest was mutated to the TAG stop codon. Receptor mRNA was then prepared by in vitro runoff transcription using the Ambion T7 mMessage mMachine kit (ThermoFischer Scientific, Bishops Stortford, UK). Noncanonical amino acids were ligated to tRNA as previously described.
(§4) Stage V-VI oocytes of Xenopus laevis were harvested and injected with RNAs as described previously. For nonsense suppression experiments, each cell was injected with 50–100 ng each of receptor mRNA and tRNA charged with the appropriate Pro analogue ~48 h before recording. For wild type and conventional mutants, each cell received a single injection of 10–25 ng of receptor mRNA ~24 h before recording. Injection volumes were 50–100 nL per cell.
(§5) As a negative control for suppression experiments at each site, unligated tRNA was co-injected with mRNA in the same manner as charged tRNA. […] Pro recovery (injecting tRNA charged with Pro to regenerate a wild type channel via nonsense suppression) was used alongside Pro analogues as a positive control.
(§6) Two-electrode voltage clamping of Xenopus oocytes was performed using standard electrophysiological procedures as previously, using an OpusXpress system (Axon Instruments, Inc., Union City, CA, USA). All experiments were performed at 22–25 °C. […] The holding potential was −60 mV unless otherwise specified. […] Data were analysed using Prism (GraphPad Software Inc., San Diego, CA, USA), fitting concentration-response data to the four-parameter logistic equation. Statistical analysis was performed using ANOVA with a Dunnett’s multiple comparisons post test.

[5] = biological target: T5, human GlyR α1 subunit P146 (CysL) substituted with 2MeP (Homo sapiens, UniProt P23415, P174X); assay: TEVC, oocytes, nonsense suppression, P146 2MeP; conditions: for EC50: n = 3
T5 sequence (P23415 29-457 P174X): T1 sequence (P23415 29-457 P124A) with A96P, P146X
Procedure: as §3, §4, §5, §6

[6] = n = 5, read-out: pEC50 (converted)
[7] = EC50, Table 3, nonsense suppression
[8] = Table 3, n = 3, read-out: % ImaxTau /ImaxGly
[9] = pEC50, Table 3, nonsense suppression

Structure (SMILES): NCC(=O)O [Gly, glycine]
- nH (Hill coefficient) [1]: 2.2 ± 0.3
- nH (Hill coefficient) [2]: 2.4 ± 0.7
- nH ([3]; Table 2, n = 6): 2.5 ± 0.4
- nH ([3]; Table 3, n = 4): 3.2 ± 1.6
- nH ([4]; Table 2, n = 5): 1.9 ± 0.7
- nH ([4]; Table 3, n = 3): 2.7 ± 0.9
- nH ([5]; Table 2, n = 6): 2.2 ± 0.5
- nH ([5]; Table 3, n = 3): 3.6 ± 0.2

Structure (SMILES): NCCS(=O)(=O)O [Tau, taurine]
- nH (Hill coefficient) [1]: 1.9 ± 0.2
- EC50 ([1]; n = 5, read-out: EC50): 2440 µM
- EC50 [1, 6]: 2440 µM
- % ImaxTau /ImaxGly ([1]; n = 5): 36 ± 2 %
- nH (Hill coefficient) [2]: 1.5 ± 0.3
- EC50 ([2]; n = 5, read-out: EC50): 1410 µM
- EC50 [2, 6]: 1410 µM
- % ImaxTau /ImaxGly ([2]; n = 5): 39 ± 3 %
- % ImaxTau /ImaxGly ([3]; Table 3, n = 4): 43 ± 5%
- nH ([3]; Table 3, n = 4): 1.5 ± 0.3
- EC50 ([3]; n = 4, read-out: EC50): 1030 µM
- EC50 ([3]; n = 4, read-out: pEC50 (converted)): 1040 µM
- EC50 [4, 7]: 757 µM
- nH ([4]; Table 3, n = 3): 1.8 ± 0.3
- Emax [4, 8]: 64 ± 7%
- EC50 [4, 9]: 757 µM
- EC50 [5, 7]: 3180 µM
- nH ([5]; Table 3, n = 3): 2.4 ± 0.6
- Emax [5, 8]: 18 ± 2%
- EC50 [5, 9]: 3180 µM
